The source of these data is US20070167466A1, “"Pyrazolo [4,3-d]pyrimidines, processes for their preparation and methods of use"” (priority 2003, published 2007).

Counter-ions that a name gives are not always drawn. Like-named read-outs stand apart in the source and are kept apart here.

One data set concerns the target MMK1 protein kinase (Vicia faba, UniProt A0AAV1B7B8). Description: Plant MMK1 protein kinase inhibition assay. Format: biochemical. The conditions noted are these: plant kinase purified from Vicia faba extracts. As to the method:
Protein extraction and purification of pant CDK by binding to p13^suc1-beads or immunopurification with an antibody specific to the cdc2a-MS protein was carried out as described previously (Bögre et al. 1997, Plant Physiol. 113, 1997, 841-852). The MMK1 protein kinase was purified with a specific antibody from Vicia faba extracts as described by Bögre et al. 1997a, Plant Cell 9, 75-83). Protein kinase activity was measured as described above in Example 19. The quantification of radioactivity incorporated into histone H1 or myelin basic protein was undertaken using Phosphoimager (original gel images shown on FIG. 1). IC50 were calculated from dose-response curves. The drugs inhibited the activity of immunopurified Vicia faba and alfalfa Cdc2-kinase. […] In contrast to the regular bipolar spindle in untreated cell, in drug-treated metaphase cells abnormally short and dense kinetochore microtubule fibres were observed. These microtubules were randomly arranged in the vicinity of the kinetochores and connected the chromosomes. Thus the chromosomes were not aligned on the metaphase plate but were arranged in a circle, with kinetochores pointing inwards and chromosome arms pointing outwards. γ-tubulin, which plays a role in microtubule nucleation, also localised to the centre of the monopolar spindle.

Data set [1] addresses CDK2 (p33^cdk2, cyclin E) (Homo sapiens, UniProt P24941). Description: CDK inhibition assay, p33^cdk2 kinase, histone H1 phosphorylation.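 Further: Baculovirus-expressed kinase/cyclin complex from Sf9 cell extract, 10 min at 30 °C, phosphoproteins separated by SDS gel and quantified by image analysis, activity relative to DMSO control.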
Description: Cyclin-dependent kinases (p34^cdc2, p33^cdk2) and cyclins (cyclin B, E) are produced in Sf9 insect cells coinfected with appropriate baculoviral constructs. The cells are harvested 68-72 hrs post infection in lysis buffer for 30 min on ice and the soluble fraction is recovered by centrifugation at 14.000 g for 10 min. The protein extract is stored at −80° C.
Lysis buffer: 50mM Tris pH 7.4, 150mM NaCl, 5 mM EDTA, 20 mM NaF, 1% Tween, 1 mM DTT, 0.1 mM PMSF, leupeptine, aprotonine.
To carry out experiments on kinetics under linear conditions, the final point test system for kinase activity measurement is used. The kinase is added to reaction mixture in such a way as to obtain linear activity with respect to the concentration of enzyme and with respect to time.
Kinase activity is determined at 30° C. in the kinase buffer.
Tested compounds are usually dissolved to 100 mM solutions in DMSO, final concentration of DMSO in reaction mixture never exceeds 1%. The controls contain suitable dilutions of DMSO.
After 10 min, addition 3×SDS sample buffer stops the incubations. Phosphorylated proteins are separated electrophoretically using 10% SDS polyacrylamide gel. The measurement of kinase activity is done using digital image analysis.
The kinase activity is expressed as a percentage of maximum activity, the apparent inhibition constants are determined by graphic analysis.
Kinase buffer: 50 mM Hepes pH 7.4, 10 mM MgCl2, 5 mM EGTA, 10 mM
For data set [2], the target named is T1, CDK1 (p34^cdc2, cyclin B) (Homo sapiens, UniProt P06493).
T1 construct: made in house; host or cells: Sf9 insect cells (baculovirus co-infection)
Description: CDK inhibition assay, p34^cdc2 kinase, histone H1 phosphorylation. The following applies: 15 μM ATP, histone H1, 30° C. Format: biochemical. The method, then: The controls contain suitable dilutions of DMSO.
2-glycerolphosphate, 1 mM NaF, 1 mM DTT

The test system of data set [3] is K562 (human chronic myeloblastic leukemia). The experiment in a line: In vitro cytotoxic activity, Calcein AM, three days. It is filed as cell-based. The following applies: read-out: K-562 IC50. As to the method:
(§1) We have been using the following cell lines: HELA (human cervical carcinoma), MCF7 (human breast adenocarcinoma), NIH 3T3 (mouse fibroblasts), HOS (human osteogenic sarcoma), HL 60 (human promyelocytic leukemia), G 361 (human malignant melanoma), K562 (human chronic myeloblastic leukemia), CEM (human lymphoblastoid leukaemia). Tested drugs were added to the cell cultures in six different concentration and kept at 37° C. and 5% CO2 for three days. All cell lines were grown in DMBM medium (Gibco BRL) supplemented with 10% (v/v) fetal bovine serum and L-glutamine and maintained at 37° C. in a humidified atmosphere with 5% CO2. 10^4 cells were seeded into each well of 96 well plate, allowed to stabilize for at least 2 h and then tested compounds were added at various concentrations ranging from 200 to 0.2 μM in triplicates. Three days after drug addition Calcein AM solution (Molecular Probes) was added and let to enter the cells for 1 hour. Fluorescence of viable cells was quantified employing Fluoroskan Ascent (Microsystems).

Data set [4] concerns MCF7 (human breast adenocarcinoma). The description is as above. It is filed as cell-based. As to the method:
as §1

In data set [5] the test system is Cytokinin-dependent tobacco callus Nicotiana tabacum L. cv. Wisconsins 38. Description: Tobacco callus bioassay for cytotoxicity (herbicidal activity). Format: cell-based. The conditions noted are these: Nicotiana tabacum, 672 h, four weeks. The method, then: The compounds to be tested were dissolved in dimethylsulfoxide (DMSO) and the solution brought up to 10^−3 M with distilled water. […] Cytokinin-dependent tobacco callus Nicotiana tabacum L. cv. […] Subcultivation was carried out every three weeks. Fourteen days before the bioassay, the callus tissue was transferred to the media without 6-benzylaminopurine. Compounds were tested with two different concentrations of 6-benzylaminopurine (10^−5 M and 10^−6 M). Inhibitory growth activity was determined from the increase in fresh callus weight after four weeks of cultivation. Five replicates were prepared for each concentration tested and the entire test was repeated at least twice.

Data set [6] has as its target CDC2a (cdc2a-MS protein, plant Cdc2-kinase) (Medicago sativa, UniProt P24923). It is filed as biochemical. The method, then:
(§2) Enzyme activity bound to p13^suc1-agarose was measured by phosphorylation of histone H1 substrate protein in the presence of various concentrations of (1) 7-furfurylamino-3-methylpyrazolo[4,3-d]pyrimidine, (2) 7-benzylamino-3-isopropylpyrazolo[4,3-d]pyrimidine, (3) 7-(3-chloroanilino)-3-isopropylpyrazolo[4,3-d]pyrimidine, (4) 7-(3-hydroxybenzyl)amino-3-isopropylpyrazolo[4,3-d]pyrimidine.
(§3) The quantification of radioactivity incorporated into histone H1 or myelin basic protein was undertaken using Phosphoimager (original gel images shown on FIG. 1). IC50 were calculated from dose-response curves.

Data set [7] concerns CDC2a (cdc2a-MS protein, plant Cdc2-kinase). It is filed as biochemical. The conditions noted are these: enzyme bound to p13^suc1-agarose, histone H1, various concentrations. As to the method:
as §2, §3

[8] abbreviates: read-out: CDK2 IC50, 15 μM ATP, histone H1, 30° C.
[9] abbreviates: read-out: IC50, growth of tobacco callus, 10^−5 M BAP, 10^−5 M 6-benzylaminopurine.
Setting [10] is: 10^−6 M 6-benzylaminopurine, read-out: IC50, growth of tobacco callus, 10^−6 M BAP.

The melting point is the temperature of the solid-liquid transition. As usually defined, the IC50 is the concentration that inhibits the measured activity by half.

T1 sequence (P06493 whole entry, species assumed): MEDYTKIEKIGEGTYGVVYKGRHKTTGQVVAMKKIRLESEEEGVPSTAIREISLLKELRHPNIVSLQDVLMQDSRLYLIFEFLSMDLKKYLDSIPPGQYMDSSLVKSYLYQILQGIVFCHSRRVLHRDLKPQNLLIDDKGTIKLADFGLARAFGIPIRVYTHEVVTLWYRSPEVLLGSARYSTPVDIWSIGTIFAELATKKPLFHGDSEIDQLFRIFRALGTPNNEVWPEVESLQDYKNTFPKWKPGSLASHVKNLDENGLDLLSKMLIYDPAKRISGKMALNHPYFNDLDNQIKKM
T1 sequence (P14635 whole entry partner, species assumed): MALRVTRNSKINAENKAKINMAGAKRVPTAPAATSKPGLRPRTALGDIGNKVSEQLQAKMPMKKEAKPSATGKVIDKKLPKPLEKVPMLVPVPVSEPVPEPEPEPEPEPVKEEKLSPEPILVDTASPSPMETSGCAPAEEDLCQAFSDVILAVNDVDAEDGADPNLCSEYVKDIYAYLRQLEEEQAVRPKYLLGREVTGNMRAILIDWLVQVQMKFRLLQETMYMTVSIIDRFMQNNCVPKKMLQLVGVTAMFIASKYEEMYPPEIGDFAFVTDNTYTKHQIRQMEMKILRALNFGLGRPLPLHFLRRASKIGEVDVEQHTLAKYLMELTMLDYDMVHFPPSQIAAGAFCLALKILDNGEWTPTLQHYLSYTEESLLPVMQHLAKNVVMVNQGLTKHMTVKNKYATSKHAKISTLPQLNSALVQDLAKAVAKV
Sequence of MMK1 protein kinase (A0AAV1B7B8 entry or part of it): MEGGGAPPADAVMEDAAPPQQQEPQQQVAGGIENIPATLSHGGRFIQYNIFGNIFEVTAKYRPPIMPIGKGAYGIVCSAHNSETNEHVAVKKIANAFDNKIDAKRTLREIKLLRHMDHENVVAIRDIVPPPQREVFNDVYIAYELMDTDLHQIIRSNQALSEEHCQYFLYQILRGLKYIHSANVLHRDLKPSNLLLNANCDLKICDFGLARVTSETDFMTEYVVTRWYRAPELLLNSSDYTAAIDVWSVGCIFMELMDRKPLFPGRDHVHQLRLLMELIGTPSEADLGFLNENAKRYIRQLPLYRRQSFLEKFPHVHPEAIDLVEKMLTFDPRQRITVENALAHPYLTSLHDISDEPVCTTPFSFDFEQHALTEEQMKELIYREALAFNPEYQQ
Sequence of CDC2a (cdc2a-MS protein, plant Cdc2-kinase) (Medicago sativa, UniProt P24923) (P24923 whole entry): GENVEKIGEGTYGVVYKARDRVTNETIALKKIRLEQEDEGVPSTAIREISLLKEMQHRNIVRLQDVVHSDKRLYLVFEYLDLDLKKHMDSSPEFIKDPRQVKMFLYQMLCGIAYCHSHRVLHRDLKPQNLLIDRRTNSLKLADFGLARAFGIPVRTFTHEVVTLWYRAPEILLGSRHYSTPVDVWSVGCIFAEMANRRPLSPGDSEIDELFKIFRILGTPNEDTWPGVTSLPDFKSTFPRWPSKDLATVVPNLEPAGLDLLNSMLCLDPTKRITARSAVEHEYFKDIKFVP

`CC(C)c1n[nH]c2c(Nc3cccc(Cl)c3)ncnc12` (as salt: salt) [3-chloroanilino / isopropyl, 7-(3-chloroanilino)-3-isopropylpyrazolo[4,3-d]pyrimidine] yielded a melting point of 213 to 216 °C.
Turning to `Cc1n[nH]c2c(NCc3ccccc3Cl)ncnc12` [2-chlorobenzylamino / methyl], the IC50 at MMK1 protein kinase worked out at 25 µM; in data set [1] (setting [8]), 24 µM; in data set [2], 25 µM.
`Cc1ccccc1CNc1ncnc2c(C(C)C)n[nH]c12` [2-methylbenzylamino / isopropyl]: the IC50 was 1.4 µM in data set [1]; 75 µM in data set [3] (Homo sapiens, K562, 72 h); 63 µM in data set [4] (Homo sapiens, MCF7, 72 h); 2 µM in data set [2]; 14 µM in data set [5] (setting [9]); 4.2 µM in data set [5] (setting [10]).
Turning to `CC(C)c1n[nH]c2c(Nc3ccc(Cl)c(C(=O)O)c3)ncnc12` [3-carboxy-4-chloroanilino / isopropyl], the IC50 is 1.7 µM against MMK1 protein kinase; 1.6 µM in [6]; 2.9 µM in [1] (setting [8]); 1 µM in data set [3]; 0.4 µM in [4]; 2.8 µM in data set [2].
For the compound `Cc1n[nH]c2c(Nc3ccc(N)c(Cl)c3)ncnc12` [3-chloro-4-aminoanilino / methyl], the IC50 was 32 µM at MMK1 protein kinase, 30 µM in data set [6], 28 µM in data set [1] (setting [8]) and 26 µM in [2].
`CC(C)c1n[nH]c2c(Nc3cccc(Cl)c3)ncnc12` [3-chloroanilino / isopropyl, 7-(3-chloroanilino)-3-isopropylpyrazolo[4,3-d]pyrimidine]: in data set [7], the “inhibition of plant cdc2 kinase activity (FIG. 1)” value (shortened to “inhibition”) was “specific inhibition”. The IC50 was 0.8 µM in data set [1]; 12 µM in [3] (Homo sapiens, K562, 72 h); 9 µM in [4] (Homo sapiens, MCF7, 72 h); 2 µM in data set [2]; 34 µM in data set [5] (setting [9]); 8.2 µM in data set [5] (setting [10]).
Consider `Cc1n[nH]c2c(Nc3cccc(Cl)c3)ncnc12` [3-chloroanilino / methyl], for which the IC50 at MMK1 protein kinase was 9.6 µM; in data set [6], 10 µM; in data set [1] (setting [8]), 16 µM; in [3] it was 35 µM; in [4], 24 µM; in [2], 14 µM.
As for `CC(C)c1n[nH]c2c(NCc3cccc(Cl)c3)ncnc12` [3-chlorobenzylamino / isopropyl], the IC50 was 9.4 µM in [1]; 26 µM in data set [3] (Homo sapiens, K562, 72 h); 24 µM in [4] (Homo sapiens, MCF7, 72 h); 8.8 µM in data set [2]; 20 µM in data set [5] (setting [9]); 1.7 µM in data set [5] (setting [10]).
As for `CC(C)c1n[nH]c2c(NCc3cccc(O)c3)ncnc12` [3-hydroxybenzylamino / isopropyl, 7-(3-hydroxybenzylamino)-3-isopropylpyrazolo[4,3-d]pyrimidine], the “inhibition” value in data set [7] is “specific inhibition”. In addition, the IC50 is 0.9 µM in data set [1]; 132 µM in [3] (Homo sapiens, K562, 72 h); 105 µM in data set [4] (Homo sapiens, MCF7, 72 h); 1.1 µM in [2].
As for `Cc1cccc(CNc2ncnc3c(C(C)C)n[nH]c23)c1` [3-methylbenzylamino / isopropyl], the IC50 in [1] is 3.1 µM; in data set [3] (Homo sapiens, K562, 72 h), 94 µM; in [4] (Homo sapiens, MCF7, 72 h), 76 µM; in data set [2], 2.2 µM; in data set [5] (setting [9]) it was 26 µM; in data set [5] (setting [10]), 8.5 µM.
In turn, `COc1ccc(CNc2ncnc3c(C(C)C)n[nH]c23)cc1` [4-methoxybenzylamino / isopropyl, 7-(4-methoxybenzyl)amino-3-isopropylpyrazolo[4,3d]pyrimidine] came in with a melting point of 143 to 144 °C. Also, the concentration for half-maximal inhibition (IC50) in [1] amounted to 1 µM. For the same compound, the 50% inhibitory concentration (IC50) in data set [3] (Homo sapiens, K562, 72 h) was 41 µM. In data set [4] (Homo sapiens, MCF7, 72 h), the IC50 is 28 µM. The compound further displayed a half-inhibitory concentration (IC50) in data set [2] of 2.3 µM.
Turning to `C=CCNc1ncnc2c(C(C)C)n[nH]c12` [allylamino / isopropyl], the IC50 is 14 µM in data set [1]; 77 µM in data set [3] (Homo sapiens, K562, 72 h); 64 µM in data set [4] (Homo sapiens, MCF7, 72 h); 16 µM in data set [2]; 18 µM in [5] (setting [9]); 3.7 µM in [5] (setting [10]).
For `CC(C)c1n[nH]c2c(Nc3ccccc3)ncnc12` [anilino / isopropyl], the concentration for half-maximal inhibition (IC50) was 5.2 µM in data set [1]; 21 µM in data set [3] (Homo sapiens, K562, 72 h); 15 µM in data set [4] (Homo sapiens, MCF7, 72 h); 4.4 µM in data set [2]; 41 µM in data set [5] (setting [9]); 5.3 µM in [5] (setting [10]).
Compound `CC(C)c1n[nH]c2c(NCc3ccccc3)ncnc12` [benzylamino / isopropyl, 7-benzylamino-3-isopropylpyrazolo[4,3-d]pyrimidine] yielded a melting point of 153 to 154 °C. For the same compound, the “inhibition” value in [7] is “specific inhibition”. This compound also came in with an IC50 in data set [1] of 0.5 µM. Further, the 50% inhibitory concentration (IC50) in [3] (Homo sapiens, K562, 72 h) was 72 µM. The 50% inhibitory concentration (IC50) in data set [4] (Homo sapiens, MCF7, 72 h) was 55 µM. Also, half-maximal inhibition in data set [2] (IC50) required 1.3 µM. Further, in data set [5] (setting [9]), the IC50 came to 24 µM. For the same compound, in data set [5] (setting [10]), the IC50 was determined as 6.5 µM.
For `CC(C)c1n[nH]c2c(NC3CCCCC3)ncnc12` [cyclohexylamino / isopropyl], the half-inhibitory concentration (IC50) is 95 µM in data set [1]; 98 µM in data set [3] (Homo sapiens, K562, 72 h); 95 µM in [4] (Homo sapiens, MCF7, 72 h); 80 µM in data set [2]; 46 µM in [5] (setting [9]); 9.4 µM in data set [5] (setting [10]).
`CC(C)c1n[nH]c2c(NCc3ccco3)ncnc12` [furfurylamino / isopropyl, 7-furfurylamino-3-isopropylpyrazolo[4,3-d]pyrimidine] had a melting point of 179 to 182 °C. In data set [1], the IC50 was 0.8 µM. Besides, the half-inhibitory concentration (IC50) in data set [3] (Homo sapiens, K562, 72 h) is greater than 167 µM. The concentration for half-maximal inhibition (IC50) in data set [4] (Homo sapiens, MCF7, 72 h) was 130 µM. The compound also gave an IC50 in [2] of 1.8 µM. In addition, in [5] (setting [9]), the half-maximal inhibitory concentration (IC50) stood at 25 µM. For the same compound, the IC50 in data set [5] (setting [10]) amounted to 9.4 µM.
Take `Cc1n[nH]c2c(NCc3ccco3)ncnc12` [furfurylamino / methyl, 7-furfurylamino-3-methylpyrazolo[4,3-d]pyrimidine]: the “inhibition” value in data set [7] is “specific inhibition”. Moreover, the IC50 in data set [1] was 16 µM; in data set [3] (Homo sapiens, K562, 72 h), greater than 167 µM; in data set [4] (Homo sapiens, MCF7, 72 h), 142 µM; in [2], 18 µM.
For `CC(C)=CCNc1ncnc2c(C(C)C)n[nH]c12` [isopentenylamino / isopropyl, 7-(isopent-2-en-(1-yl)amino)-3-isopropylpyrazolo[4,3-d]pyrimidine], the 50% inhibitory concentration (IC50) in [1] is 1.3 µM; in [3] (Homo sapiens, K562, 72 h), greater than 167 µM; in [4] (Homo sapiens, MCF7, 72 h), greater than 167 µM; in [2], 4.5 µM; in data set [5] (setting [9]), 15.3 µM; in data set [5] (setting [10]), 1.7 µM.
The compound `CCCCCNc1ncnc2c(C(C)C)n[nH]c12` [pentylamino / isopropyl, 7-pentylamino-3-isopropylpyrazolo[4,3-d]pyrimidine] gave a melting point of 73 to 75 °C. The compound further showed an IC50 in data set [1] of 1.4 µM. The IC50 in [3] (Homo sapiens, K562, 72 h) is 61 µM. For the same compound, in data set [4] (Homo sapiens, MCF7, 72 h), the half-inhibitory concentration (IC50) was 32 µM. For the same compound, the 50% inhibitory concentration (IC50) in [2] was determined as 1.7 µM.
